In ChEMBL document CHEMBL4806962, “Methods and Compositions for Treating Cancer” (2020):
Activity calls are given as the source filed them. The rule behind the calls is not given here.

Tests used:
[1] = (§1) Ratio of FC for induction of TNF production in anti-CD3/CD28-stimulated human PBMCs at 1 uM after 24 hrs in presence of PBF-509 and MRS-1754 to FC for induction of TNF production in anti-CD3/CD28-stimulated human PBMCs at 1 uM after 24 hrs in presence of PBF-509 and absence of MRS-1754; type: functional, PBMC
[2] = Induction of TNF production in anti-CD3/CD28-stimulated human PBMCs assessed as fold increase in TNF level at 1 to 2 uM after 24 hrs in presence of A2aR inhibitor ZM-241385 by ELISA; type: functional, PBMC; conditions: dose 1-2 µM
CD4+ve Th = experiment: Reduction in AREG expression in human CD4-positive T-cells at 10 uM in presence of A2aR inhibitor ZM-241385; type: functional
PBMC [3] = experiment: Effect of compound on human PBMCs assessed as reduction in CTLA4 expression in naive Treg cells after 1 day by flow cytometric analysis; type: functional, cell-based; conditions: dose 0.19-6 µM
PBMC [4] = experiment: Effects of compound on IL-10 production in anti-CD3/CD28-stimulated human PBMCs assessed as fold increase in IL-10 level at 30 uM after 2 days by ELISA; type: functional, tissue-based; conditions: time 2.0 day
PBMC [5] = experiment: Effects of compound on IL-17A production in anti-CD3/CD28-stimulated human PBMCs assessed as fold decrease in IL-17A level at 30 uM after 2 days by ELISA; type: functional, tissue-based; conditions: time 2.0 day
Splenocyte [6] = experiment: Effects of compound on IL-2 production in anti-CD3/CD28-stimulated GPR174 knock out mouse spleenocytes assessed as fold increase in IL-2 level at 0.3 uM after 2 days in presence of NECA; type: functional, cell-based; conditions: time 2.0 day
PBMC [7] = experiment: Effect of compound on human PBMCs assessed as reduction in AREG expression in CD4-positive T cells after 1 day by flow cytometric analysis; type: functional, cell-based; conditions: dose 1.25-5 µM
PBMC [8] = experiment: Effects of compound on INF-gamma production in anti-CD3/CD28-stimulated human PBMCs assessed as fold increase in INF-gamma level at 30 uM after 2 days by ELISA; type: functional; conditions: time 2.0 day
[9] = molecular target: T1, Probable G-protein coupled receptor 174 (Homo sapiens, UniProt Q9BXC1); experiment: Inverse agonist activity at GPR174 in anti-CD3/CD28-stimulated human PBMCs assessed as reduction in FoxP3-positive Helios-positive nTreg cells at 100 uM after 7 days by flow cytometric analysis; type: functional, tissue-based; conditions: PBMC, filed as inverse agonist, time 7.0 day
PBMC [10] = experiment: Effect of compound on human PBMCs assessed as reduction in CTLA4 expression in memory non-Treg cells after 1 day by flow cytometric analysis; type: functional, cell-based; conditions: dose 0.19-6 µM
PBMC [11] = experiment: Effect of compound on human PBMCs assessed as reduction in PD-L1 expression in CD4-positive T cells after 1 day by flow cytometric analysis; type: functional, cell-based; conditions: dose 1.25-5 µM
PBMC [12] = experiment: Effect of compound on human PBMCs assessed as reduction in CTLA4 expression in non-Treg cells after 1 day by flow cytometric analysis; type: functional, cell-based; conditions: dose 0.19-6 µM
[13] = molecular target: T1, Probable G-protein coupled receptor 174; experiment: Inverse agonist activity at GPR174 in anti-CD3/CD28-stimulated human PBMCs assessed as increase in FoxP3-positive Helios-negative T cells at 100 uM after 3 days by flow cytometric analysis; type: functional, tissue-based; conditions: PBMC, filed as inverse agonist, time 3.0 day
PBMC [14] = experiment: Effects of compound on IL-2 production in anti-CD3/CD28-stimulated human PBMCs assessed as increase in IL-2 level at 30 uM after 2 days by ELISA; type: functional, tissue-based; conditions: time 2.0 day
[15] = as §1, with “INF-gamma” for “TNF”, “ZM-241385” for “PBF-509”; type: functional, PBMC
PBMC [16] = experiment: Effects of compound on TNF-alpha production in anti-CD3/CD28-stimulated human PBMCs assessed as fold increase in TNF-alpha level at 30 uM after 2 days by ELISA; type: functional, tissue-based; conditions: time 2.0 day
[17] = Effects of compound on anti-CD3/CD28-stimulated human PBMCs assessed as non-T cells population at 10 uM after 2 days by flow cytometric analysis; type: functional, PBMC; conditions: time 2 day
[18] = Effects of compound on anti-CD3/CD28-stimulated human PBMCs assessed as CD4-positive cells population at 10 uM after 2 days by flow cytometric analysis; type: functional, PBMC; conditions: time 2 day
PBMC [19] = experiment: Effects of compound on IL-6 production in anti-CD3/CD28-stimulated human PBMCs assessed as fold increase in IL-6 level at 30 uM after 2 days by ELISA; type: functional, tissue-based; conditions: time 2.0 day
[20] = Ratio of FC for induction of INF-gamma production in anti-CD3/CD28-stimulated human PBMCs at 1 uM after 24 hrs in presence of PBF-509 and MRS-1754 to FC for induction of INF-gamma production in anti-CD3/CD28-stimulated human PBMCs at 1 uM after 24 hrs in presence of PBF-509 and absence of MRS-1754; type: functional, PBMC
[21] = molecular target: T1, Probable G-protein coupled receptor 174; experiment: Antagonist activity at GPR174 (unknown origin) expressed in HEK293 cells assessed as inhibition of PS-induced GPR174 signaling at 1 to 2 uM incubated for 15 mins by GloSensor assay; type: functional, cell-based; design: scale not given: the % may be the effect or the level left; conditions: filed as antagonist, dose 1-2 µM
Splenocyte [22] = experiment: Effects of compound on IL-2 production in anti-CD3/CD28-stimulated wild-type mouse spleenocytes assessed as fold increase in IL-2 level at 0.3 to 1 uM after 2 days; type: functional; conditions: dose 0.3-1 µM; time 2 day
Splenocyte [23] = experiment: Effects of compound on IL-2 production in anti-CD3/CD28-stimulated GPR174 knockdown mouse splenocytes assessed as increase in IL-2 levels at 10 uM after 48 hrs; type: functional, cell-based
[24] = Induction of IL-2 production in anti-CD3/CD28-stimulated human PBMCs assessed as fold increase in IL-2 level at 1 uM after 24 hrs in presence of 0.1 uM A2aR inhibitor PBF-509 by ELISA; type: functional, PBMC
PBMC [25] = experiment: Effects of compound on IL-2 production in anti-CD3/CD28-stimulated human PBMCs assessed as increase in IL-2 level after 2 days by ELISA; type: functional, tissue-based; conditions: dose 1-10 µM, time 2.0 day
[26] = Effects of compound on anti-CD3/CD28-stimulated human PBMCs assessed as non-T cells population at 10 uM after 4 hrs by flow cytometric analysis; type: functional, PBMC
PBMC [27] = experiment: Effect of compound on human PBMCs assessed as reduction in CTLA4 expression in memory Treg cells after 1 day by flow cytometric analysis; type: functional, cell-based; conditions: dose 0.19-6 µM
[28] = Induction of TNF production in anti-CD3/CD28-stimulated human PBMCs assessed as fold increase in TNF level at 1 uM after 24 hrs in presence of 0.75 ug/ml ADA by ELISA; type: functional, PBMC
[29] = molecular target: T1, Probable G-protein coupled receptor 174; experiment: Inverse agonist activity at GPR174 in anti-CD3/CD28-stimulated human PBMCs assessed as reduction in FoxP3-positive Helios-positive nTreg cells after 7 days by flow cytometric analysis; type: functional, tissue-based; conditions: PBMC, filed as inverse agonist, dose 3-30 µM, time 7.0 day

T1 sequence (Q9BXC1 whole entry): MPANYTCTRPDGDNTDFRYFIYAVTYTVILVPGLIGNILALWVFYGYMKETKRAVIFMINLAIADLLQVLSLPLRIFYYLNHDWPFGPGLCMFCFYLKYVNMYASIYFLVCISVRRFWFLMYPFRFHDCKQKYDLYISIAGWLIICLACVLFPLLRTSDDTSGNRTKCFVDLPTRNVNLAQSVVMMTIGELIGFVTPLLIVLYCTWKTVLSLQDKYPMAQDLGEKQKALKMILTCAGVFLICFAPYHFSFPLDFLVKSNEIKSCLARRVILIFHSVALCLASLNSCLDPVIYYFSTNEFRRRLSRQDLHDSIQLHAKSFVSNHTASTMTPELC

Activity [9]: Active
Activity [13]: Active
Activity [21]: 100%
Activity [29]: Dose-Dependent Effect
SMILES: CC1CCN(c2cc(N3CCN(S(=O)(=O)c4ccccc4)CC3)c([N+](=O)[O-])cc2F)CC1
Ratio [1]: 1
fold change (FC) [2]: 8
Activity (CD4+ve Th): Active
Activity (PBMC [3]): Dose-Dependent Effect
Activity (PBMC [4]): Active
Activity (PBMC [5]): Active
Activity (Splenocyte [6]): inactive
Activity (PBMC [7]): Dose-Dependent Effect
Activity (PBMC [8]): Active
Activity (PBMC [10]): Dose-Dependent Effect
Activity (PBMC [11]): Dose-Dependent Effect
Activity (PBMC [12]): Dose-Dependent Effect
Activity (PBMC [14]): Active
Ratio [15]: 1
Activity (PBMC [16]): Active
Activity [17]: 33.1%
Activity [18]: 31.8%
Activity (PBMC [19]): Active
Ratio [20]: 1
fold change (FC) (Splenocyte [22]): 10
Activity (Splenocyte [23]): inactive
fold change (FC) [24]: 1.9
Activity (PBMC [25]): Dose-Dependent Effect
Activity [26]: 33.9%
Activity (PBMC [27]): Dose-Dependent Effect
fold change (FC) [28]: 1.9
